Test results taken from patent US8513280B2, “Use of epothilones in the treatment of neuronal connectivity defects such as schizophrenia and autism” (Institut National de la Sante et de la Recherche Medicale, priority 2004, dated 2013).
Several values for one entry are separate records, joined by “and”; a condition that tells them apart may be missing. Equal values may be shown once.

Legend:
Format in all cases: in vivo, mouse
STOP deficient mice [1] = experiment: Maternal behaviour: nest building and pup retrieving, STOP KO mice
Method: (§1) For maternal behaviour, STOP deficient or control wild type (WT) female mice, nulliparous, 8 weeks old, were treated either with a placebo (carrier alone), or with epothilone D.
(§2) The maternal behaviour of treated and untreated mice was monitored by assaying the mouse ability to build a nest and to retrieve pups
(§3) For assessment of nesting capacity, the tested mouse was placed in a 240×240×120 mm cage containing litter and provided with a Kleenex tissue folded in 4 (final dimensions, 100×100 mm). After 60 hours, the mouse ability to use the paper and to build a nest was scored as follows:
(§4) Tissue use score: 0, the Kleenex tissue remained folded; 1, the tissue has been unfolded but not shredded; 2 the tissue was shredded.
(§5) Nest building score: 0, no attempt to build a nest; 1, primitive flat nest of uncontrolled shape; 2, true nest, the paper is mixed with litter to form a circular nest, less than 80 mm in diameter.
(§6) For assessment of retrieving: following the nest building test, mice were trained and assessed for pup retrieving as in Andrieux et al. (Genes Dev. 2002 Sep. 15; 16(18):2350-64. Retrieving was scored as the number of pups retrieved (0 to 3).
Finally a global score for nesting and retrieving capacity (TNR) was determined for each mouse, by adding the tissue use, nest building, and pup retrieving scores (maximal score for TNR is 7).
The maternal behaviour of untreated and treated mice was monitored by assaying mouse ability to build a nest and to retrieve pups. Experiments were performed at 3 concentrations of epothilone D (4 mg/kg/week, 3 mg/kg/week and 0.3 mg/kg/week).
Among 69 STO KO mice, […] were treated with placebo injections, 17 were treated with 3 mg/kg/week of epothilone, and 18 were treated with 0.3 mg/kg/week of epothilone. Among 34 WT mice, 17 were treated with placebo injections, and 17 were treated with 3 mg/kg/week of epothilone.
In another series of experiments, among 19 STOP KO mice, 9 were treated with placebo injections, 10 with 4 mg/kg/week epothilone D and as control, among 20 WT mice, 10 were treated with placebo injections and 10 with 4 mg/kg/week epothilone D.

STOP deficient mice [2] = experiment: Spontaneous activity, video-recorded during 3 h, STOP KO mice
Method: (§7) Spontaneous activity (male and female) was recorded and quantified during a three hours period of time, as in Andrieux et al., Genes Dev. 2002 Sep. 15; 16(18):2350-64. Five activities were considered: feeding, remaining still without sleeping, walking, grooming and sleeping. For each activity, the total time spent doing the activity and the number of distinct sequences of activity, were determined.
(§8) In a first series of experiments, epothilone D was injected intra-peritoneally, once a week, at either 0.3 mg/kg/week or 3 mg/kg/week for at least 8 weeks. The drug was diluted at a final concentration of 0.3 mg/ml in water, from a 50 mg/ml stock solution in DMSO.
(§9) In a second series of experiments, epothilone D was injected intra-peritoneally, in two injections a week, at a total dose of 4 mg/kg/week, for 8 weeks. The drug was diluted at a final concentration of 0.2 mg/ml in water, from a 50 mg/ml stock solution in DMSO.
(§10) Among 61 STOP KO mice, 28 were treated with placebo injections, 33 with 3 mg/kg/week of epothilone D. Among 62 WT mice, 29 were treated with placebo injections, 33 with 3 mg/kg/week of epothilone D.
(§11) In another series of experiments, among 19 STOP KO mice, 9 were treated with placebo injections, 10 with 4 mg/kg/week epothilone D. Among 20 WT mice, 10 were treated with placebo injections and 10 with 4 mg/kg/week epothilone D.

WT mice [3] = experiment: Spontaneous activity, video-recorded during 3 h, WT mice
Method: as §7, §8, §9, §10, §11

STOP KO mice [4] = experiment: Pup survival in progeny of STOP KO mothers
Method: The epothilone treatment has been then tested whether it could induce pup survival in STOP KO mothers. Nine STOP KO mice treated with Epothilone D at 0.3 mg/kg/week and eight untreated females were mated the pups survival were analysed after delivery.

WT mice [5] = experiment: Maternal behaviour: nest building and pup retrieving, WT mice; details: example II
Method: as §1, §2, §3, §4, §5, §6
Finally a global score for nesting and retrieving capacity (TNR) was determined for each mouse, by adding the tissue use, nest building, and pup retrieving scores (maximal score for TNR is 7). […]

STOP KO mice [6] = experiment: Synaptic vesicle density in CA1 hippocampal synapses (electron micrographs), STOP KO mice
Method: It reports the quantitative analysis of synaptic vesicle density in CA1 hippocampal synapses of mice treated or not with epothilone D 3 mg/kg/week or with neuroleptics (0.5 mg/kg/day haloperidol and 5 mg/kg/day chlorpromazine, in drinking water, from birth to adulthood). Synaptic vesicle density, calculated as the ratio of the number of vesicle/nerve terminal surface (after subtraction of the surface area occupied by mitochondria). Results (means+/−s.e.m.) are shown for pooled 75 measurements from five wild type mice and from five STOP KO mice either untreated or treated with Epothilone D. For neuroleptic control experiments, results (means+/−s.e.m.) are shown for pooled 75 measurements from three STOP KO mice either untreated or treated with neuroleptics.
Hippocampus was dissected out from transcardially fixed mice, sliced and embedded in Epon. To determine the surface density of synaptic vesicles, a total of cross sections of 75 synapses made of hippocampal CA1 region were photographed randomly, and the numbers of synaptic vesicles in each nerve pre-terminal were counted on the electron micrographs. Synaptic vesicles density of STOP KO mice following long term neuroleptic treatment (0.5 mg/kg/day haloperidol and 5 mg/kg/day chlorpromazine, in drinking water, from birth to adulthood) was also examined using the same protocol. […]

[7] = STOP KO mice, 0.3 mg/kg/week i.p., FIG. 3
[8] = STOP KO mice, 3 mg/kg/week i.p., FIG. 3
[9] = STOP deficient mice, 4 mg/kg/week, FIG. 4
[10] = STOP deficient mice, 3 mg/kg/week i.p., FIG. 1-B
[11] = STOP deficient mice, 4 mg/kg/week, 8 weeks, FIG. 2

Compound: C/C1=C/CC(/C(C)=C/c2csc(C)n2)OC(=O)CC(O)C(C)(C)C(=O)C(C)C(O)C(C)CCC1 (stereo not shown) [epothilone D]
- TNR score (global score, maximal 7) (STOP deficient mice [1]; [7]): highly significant increase
- nest building score (0-2) (STOP deficient mice [1]; [7]): improved
- paper use score (tissue use score, 0-2) (STOP deficient mice [1]; [7]): improved
- pup retrieving score (0-3) (STOP deficient mice [1]; [7]): improved
- TNR score (global score, maximal 7) (STOP deficient mice [1]; [8]): highly significant increase
- nest building score (0-2) (STOP deficient mice [1]; [8]): improved
- paper use score (tissue use score, 0-2) (STOP deficient mice [1]; [8]): improved
- pup retrieving score (0-3) (STOP deficient mice [1]; [8]): improved
- TNR score (global score, maximal 7) (STOP deficient mice [1]; STOP KO mice, 4 mg/kg/week, rose from 1.16 without treatment, highly significant increase, FIG. 4): 4.4
- nest building score (0-2) (STOP deficient mice [1]; [9]): strongly improved
- paper use score (tissue use score, 0-2) (STOP deficient mice [1]; [9]): strongly improved
- pup retrieving score (STOP deficient mice [1]; [9]): tended to improve
- total number of shifts between activities (STOP deficient mice [2]; STOP KO mice, summary statement, dose not stated): decrease
- total time spent grooming (STOP deficient mice [2]; STOP deficient mice, 3 mg/kg/week i.p. once a week, at least 8 weeks, vs placebo, FIG. 1-A): decrease
- number of remaining still while awake sequences (STOP deficient mice [2]; [10]): reducing
- number of walking sequences (STOP deficient mice [2]; [10]): reducing
- total time spent sleeping (STOP deficient mice [2]; STOP deficient mice, 3 mg/kg/week i.p., vs placebo, FIG. 1-A): increase
- total number of shifts between activities (STOP deficient mice [2]; STOP deficient mice, 3 mg/kg/week i.p., vs placebo, FIG. 1-B): decreased
- total number of shifts between activities (STOP deficient mice [2]; STOP deficient mice, 4 mg/kg/week i.p. in two injections a week, 8 weeks, FIG. 2): remarkable decrease
- number of feeding sequences (STOP deficient mice [2]; [11]): remained unaffected
- number of grooming sequences (STOP deficient mice [2]; [11]): decrease
- number of sleeping sequences (STOP deficient mice [2]; [11]): remained unaffected
- number of walking sequences (STOP deficient mice [2]; [11]): decrease
- total time spent grooming (STOP deficient mice [2]; [11]): highly significantly diminished
- time spent sleeping (STOP deficient mice [2]; STOP deficient mice, 4 mg/kg/week, 8 weeks, trend (tended to increase), FIG. 2): increase
- time spent remaining still without sleeping (STOP deficient mice [2]; STOP deficient mice, 4 mg/kg/week, 8 weeks, trend, FIG. 2): tended to diminish
- number of sequences of stillness (WT mice [3]; 4 mg/kg/week, FIG. 2, said to be compatible with random fluctuations): significant increase
- effect on the recorded activities (WT mice [3]; example I (3 and 4 mg/kg/week)): no significant effect
- STOP KO females with pup survival (STOP KO mice [4]; 0.3 mg/kg/week, nine treated STOP KO females mated, no pup survival without treatment): three out of the nine
- ratio of surviving pups to newborns (STOP KO mice [4]; 0.3 mg/kg/week, per mouse, the three STOP KO females with surviving pups): 5/6 (2×) and 6/6
- maternal behaviour, compatible with pup survival (STOP KO mice [4]; STOP deficient female mice, summary statement, dose not stated): re-established
- effect on nurturing-related behaviours (WT mice [5]): no significant effect
- increase of synaptic vesicle density relative to absence of treatment (STOP KO mice [6]; CA1 hippocampal synapses, 4 mg/kg/week, p<0.001, FIG. 5): 20%
- increase of synaptic vesicle density (STOP KO mice [6]; summary statement, dose not stated): about 20%
